Read-outs that look alike come from different tables or passages of the source.
What was measured:
[1] = test system: H929 multiple myeloma tumour line; assay: In vitro cytotoxicity, Microculture Tetrazolium Assay; type: cell-based
Method: The cytotoxicity studies were carried out on the H929 multiple myeloma tumour line.
The cells are distributed onto microplates and exposed to the test compounds for 48 hours.

Mcl-1 protein = Mcl-1 protein (UniProtKB primary accession number: Q07820) (Homo sapiens, UniProt Q07820); assay: Inhibition of Mcl-1 by fluorescence polarisation, Method 1; type: binding; settings: read-out: IC50 (M) Mcl-1 FP
Chain of Mcl-1 protein (Q07820 whole entry): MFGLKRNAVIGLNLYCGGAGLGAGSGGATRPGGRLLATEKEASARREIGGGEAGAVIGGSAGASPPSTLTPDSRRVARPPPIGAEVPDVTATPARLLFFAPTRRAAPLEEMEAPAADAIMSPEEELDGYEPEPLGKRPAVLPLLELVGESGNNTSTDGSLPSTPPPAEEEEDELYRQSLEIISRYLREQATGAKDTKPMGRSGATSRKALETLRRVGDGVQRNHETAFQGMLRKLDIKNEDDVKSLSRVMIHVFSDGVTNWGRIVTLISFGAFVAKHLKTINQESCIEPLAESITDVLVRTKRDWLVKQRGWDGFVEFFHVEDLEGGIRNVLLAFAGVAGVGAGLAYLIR
Outline: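 Compounds were tested as 11-point serial dilutions at 5% final DMSO against 5 nM Mcl-1 with 1 nM fluorescein-labelled ligand in 10 mM HEPES, 150 mM NaCl, 0.05% Tween 20, pH 7.4. Relative binding potency was read by fluorescence polarisation.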

[2] = Homo sapiens, NCI-H929, 48 h, H929 cells, 48 hours exposure, MTT, read-out: IC50 (μM) MTT H929
[3] = fluorescence polarisation, Method 1, or Method 2
[4] = fluorescence polarisation test, Method 2 values are underlined in the patent (underlining not visible here)

Compound | IC50 (Mcl-1 protein; [3]) [M] | IC50 (Mcl-1 protein; [4]) [M] | IC50 [1, 2] [µM] | further results
COc1ccccc1-c1nccc(COc2ccccc2CC(Oc2ncnc3sc(-c4ccccc4F)c(-c4ccc(OCCN5CCN(C)CC5)c(Cl)c4C)c23)C(=O)O)n1 [Example 835, (2R)-2-{[(5Sa)-5-{3-chloro-2-methyl-4-[2-(4-methylpiperazin-1-yl)ethoxy]phenyl}-6-(2-fluorophenyl)thieno[2,3-d]pyrimidin-4-yl]oxy}-3-(2-{[2-(2-methoxyphenyl)pyrimidin-4-yl]methoxy}phenyl)propanoic acid] |  |  |  | IC50 ([1]; Homo sapiens, NCI-H929, 48 h, H929 cells, 48 hours exposure, cell viability, read-out: IC50 (μM) MTT H929): 0.002 µM; IC50 (Mcl-1 protein; fluorescence polarisation test, Method 1, or Method 2 where the value is underlined (underlining not visible)): 2.9e-09 M
COc1ccccc1CC(Oc1ncnc2sc(-c3cccc([N+](=O)[O-])c3)c(-c3ccc(OCCN4CCN(C)CC4)c(Cl)c3C)c12)C(=O)O [Example 545, (2R)-2-{[(5Sa)-5-{3-chloro-2-methyl-4-[2-(4-methylpiperazin-1-yl)ethoxy]phenyl}-6-(3-nitrophenyl)thieno[2,3-d]pyrimidin-4-yl]oxy}-3-(2-methoxyphenyl)propanoic acid] | 3.9e-08 |  | 1.1 | 
Cc1c(-c2c(-c3ccc(OCc4ccn(C)n4)cc3)sc3ncnc(OC(Cc4ccccc4OCc4ccnn4CC(F)(F)F)C(=O)O)c23)ccc(OCCN2CCN(C)CC2)c1Cl [Example 779, (2R)-2-[((5Sa)-5-{3-chloro-2-methyl-4-[2-(4-methylpiperazin-1-yl)ethoxy]phenyl}-6-{4-[(1-methyl-1H-pyrazol-3-yl)methoxy]phenyl}thieno[2,3-d]pyrimidin-4-yl)oxy]-3-(2-{[1-(2,2,2-trifluoroethyl)-1H-pyrazol-5-yl]methoxy}phenyl)propanoic acid] | 1.86e-09 |  | 0.056 | 
Cc1c(-c2c(-c3ccc(F)cc3)sc3ncnc(OC(Cc4ccccc4OCc4ccnn4C4CCOCC4)C(=O)O)c23)ccc(OCCN2CCN(C)CC2)c1Cl [Example 75, (2R)-2-{[(5Sa)-5-{3-chloro-2-methyl-4-[2-(4-methylpiperazin-1-yl)ethoxy]phenyl}-6-(4-fluorophenyl)thieno[2,3-d]pyrimidin-4-yl]oxy}-3-(2-{[1-(tetrahydro-2H-pyran-4-yl)-1H-pyrazol-5-yl]methoxy}phenyl)propanoic acid] |  | 4e-09 | 0.11 | 
Cc1c(-c2c(-c3ccc(F)o3)sc3ncnc(OC(Cc4ccccc4OCC(=O)NCc4ccccc4)C(=O)O)c23)ccc(OCCN2CCN(C)CC2)c1Cl [Example 153, (2R)-3-{2-[2-(benzylamino)-2-oxoethoxy]phenyl}-2-{[(5Sa)-5-{3-chloro-2-methyl-4-[2-(4-methylpiperazin-1-yl)ethoxy]phenyl}-6-(5-fluorofuran-2-yl)thieno[2,3-d]pyrimidin-4-yl]oxy}propanoic acid] |  | 5e-09 | 0.146 | 
CCc1sc2ncnc(OC(Cc3ccccc3)C(=O)O)c2c1-c1cc2nc(CN3CCN(C)CC3)oc2c(Cl)c1C [Example 445, (2R)-2-[((5Sa)-5-{7-chloro-6-methyl-2-[(4-methylpiperazin-1-yl)methyl]-1,3-benzoxazol-5-yl}-6-ethylthieno[2,3-d]pyrimidin-4-yl)oxy]-3-phenylpropanoic acid] | 1.3e-07 |  | 21 | 
COc1nccc(COc2ccccc2CC(Oc2ncnc3sc(-c4ccc(F)c(OCCN5CCOCC5)c4)c(-c4ccc(OCCN5CCN(C)CC5)c(Cl)c4C)c23)C(=O)O)n1 [Example 596, (2R)-2-[((5Sa)-5-{3-chloro-2-methyl-4-[2-(4-methylpiperazin-1-yl)ethoxy]phenyl}-6-{4-fluoro-3-[2-(morpholin-4-yl)ethoxy]phenyl}thieno[2,3-d]pyrimidin-4-yl)oxy]-3-{2-[(2-methoxypyrimidin-4-yl)methoxy]phenyl}propanoic acid] | 2.7e-09 |  | 0.12 | 
CC#Cc1sc2ncnc(OC(Cc3ccccc3OC)C(=O)O)c2c1-c1ccc(OCCN(C(C)C)C(C)C)c(Cl)c1C [Example 466, (2R)-2-{[(5Sa)-5-(3-chloro-4-{2-[di(propan-2-yl)amino]ethoxy}-2-methylphenyl)-6-(prop-1-yn-1-yl)thieno[2,3-d]pyrimidin-4-yl]oxy}-3-(2-methoxyphenyl)propanoic acid] | 3.9e-08 |  | 3.35 | 
Cc1c(-c2c(-c3ccc(F)cc3)sc3ncnc(OC(Cc4ccccc4OCc4ccnc(N5CCOCC5)c4)C(=O)O)c23)ccc(OCCN2CCN(C)CC2)c1Cl [Example 20, (2R)-2-{[(5Sa)-5-{3-chloro-2-methyl-4-[2-(4-methylpiperazin-1-yl)ethoxy]phenyl}-6-(4-fluorophenyl)thieno[2,3-d]pyrimidin-4-yl]oxy}-3-(2-{[2-(morpholin-4-yl)pyridin-4-yl]methoxy}phenyl)propanoic acid] |  | 6.4e-09 | 0.08 | 
COc1ccccc1C[C@@H](Oc1ncnc2sc(-c3ccc(F)cc3)c(-c3cc(F)c(OCCN4CCN(C)CC4)c(Cl)c3C)c12)C(=O)O (single isomer, unassigned) [Example 664] | 3.86e-08 |  |  | IC50 ([1]; Homo sapiens, NCI-H929, 48 h, read-out: IC50 (μM) MTT H929, H929 cells, 48 hours exposure, MTT): 2.08 µM
CCNC(=O)NCCCOc1ccc(-c2c(CC)sc3ncnc(OC(Cc4ccccc4)C(=O)O)c23)c(C)c1Cl [Example 404, (2R)-2-{[(5Sa)-5-(3-chloro-4-{3-[(ethylcarbamoyl)amino]propoxy}-2-methylphenyl)-6-ethylthieno[2,3-d]pyrimidin-4-yl]oxy}-3-phenylpropanoic acid] | 5.7e-08 |  | 21.6 | 
COCCOc1cc(COc2ccccc2CC(Oc2ncnc3sc(-c4ccc(F)cc4)c(-c4ccc(OCCN5CCN(C)CC5)c(Cl)c4C)c23)C(=O)O)ccn1 [Example 22, (2R)-2-{[(5Sa)-5-{3-chloro-2-methyl-4-[2-(4-methylpiperazin-1-yl)ethoxy]phenyl}-6-(4-fluorophenyl)thieno[2,3-d]pyrimidin-4-yl]oxy}-3-(2-{[2-(2-methoxyethoxy)pyridin-4-yl]methoxy}phenyl)propanoic acid] |  | 8.3e-09 | 0.092 | 

Further lines, with some results ahead:

IC50 (Mcl-1 protein; [3]) [M] | IC50 (Mcl-1 protein; [4]) [M] | Compound | IC50 [1, 2] [µM] | further results
1.1e-08 |  | Cc1c(OCCN2CCN(C)CC2)ccc(-c2c(-c3ccco3)sc3ncnc(OC(Cc4ccccc4OCC(F)(F)F)C(=O)O)c23)c1C [Example 673, (2R)-2-[(5Sa)-5-[2,3-dimethyl-4-[2-(4-methylpiperazin-1-yl)ethoxy]phenyl]-6-(2-furyl)thieno[2,3-d]pyrimidin-4-yl]oxy-3-[2-(2,2,2-trifluoroethoxy)phenyl]propanoic acid] | 0.576 | 
 | 5.5e-07 | Cc1c(-c2c(-c3ccco3)sc3ncnc(OC(Cc4ccccc4F)C(=O)O)c23)ccc(OCCN2CCN(C)CC2)c1Cl [Example 357, (2R)-2-{[(5Sa)-5-{3-chloro-2-methyl-4-[2-(4-methylpiperazin-1-yl)ethoxy]phenyl}-6-(furan-2-yl)thieno[2,3-d]pyrimidin-4-yl]oxy}-3-(2-fluorophenyl)propanoic acid] |  | IC50 ([1]; H929 cells, 48 hours exposure, MTT, read-out: IC50 (μM) MTT H929): 3.39 µM
 | 4.8e-09 | Cc1c(-c2c(-c3ccc(F)cc3)sc3ncnc(OC(Cc4ccccc4OCc4ccnc(-c5ccnc(Cl)c5)n4)C(=O)O)c23)ccc(OCCN2CCN(C)CC2)c1Cl [Example 119, (2R)-2-{[(5Sa)-5-{3-chloro-2-methyl-4-[2-(4-methylpiperazin-1-yl)ethoxy]phenyl}-6-(4-fluorophenyl)thieno[2,3-d]pyrimidin-4-yl]oxy}-3-(2-{[2-(2-chloropyridin-4-yl)pyrimidin-4-yl]methoxy}phenyl)propanoic acid] | 0.02 | 
3.5e-09 |  | CCCCn1nccc1COc1ccccc1CC(Oc1ncnc2sc(-c3ccc(F)nc3)c(-c3ccc(OCCN4CCN(C)CC4)c(Cl)c3C)c12)C(=O)O [Example 607, (2R)-3-{2-[(1-butyl-1H-pyrazol-5-yl)methoxy]phenyl}-2-{[(5Sa)-5-{3-chloro-2-methyl-4-[2-(4-methylpiperazin-1-yl)ethoxy]phenyl}-6-(6-fluoropyridin-3-yl)thieno[2,3-d]pyrimidin-4-yl]oxy}propanoic acid] | 0.04 | 
 | 3.1e-09 | CNc1nccc(COc2ccccc2CC(Oc2ncnc3sc(-c4ccco4)c(-c4ccc(OCCN5CCN(C)CC5)c(Cl)c4C)c23)C(=O)O)n1 [Example 253, (2R)-2-{[(5Sa)-5-{3-chloro-2-methyl-4-[2-(4-methylpiperazin-1-yl)ethoxy]phenyl}-6-(furan-2-yl)thieno[2,3-d]pyrimidin-4-yl]oxy}-3-(2-{[2-(methylamino)pyrimidin-4-yl]methoxy}phenyl)propanoic acid] | 0.041 | 
 | 4.5e-09 | Cc1c(-c2c(-c3ccco3)sc3ncnc(OC(Cc4ccccc4OCc4cnccn4)C(=O)O)c23)ccc(OCCN2CCN(C)CC2)c1Cl [Example 275, (2R)-2-{[(5Sa)-5-{3-chloro-2-methyl-4-[2-(4-methylpiperazin-1-yl)ethoxy]phenyl}-6-(furan-2-yl)thieno[2,3-d]pyrimidin-4-yl]oxy}-3-[2-(pyrazin-2-ylmethoxy)phenyl]propanoic acid] | 0.051 | 
9.6e-09 |  | CCn1nccc1COc1ccccc1CC(Oc1ncnc2sc(-c3ccc(F)c(F)c3)c(-c3ccc(OCCN4CCN(C)CC4)c(Cl)c3C)c12)C(=O)O [Example 708, (2R)-2-{[(5Sa)-5-{3-chloro-2-methyl-4-[2-(4-methylpiperazin-1-yl)ethoxy]phenyl}-6-(3,4-difluorophenyl)thieno[2,3-d]pyrimidin-4-yl]oxy}-3-{2-[(1-ethyl-1H-pyrazol-5-yl)methoxy]phenyl}propanoic acid] | 0.055 | 
